According to ChEMBL document CHEMBL1131559, “Novel quinolone derivatives as potent antibacterials” (1998):
In brackets after ≈: the same amount, converted by molar mass.

Assays:
Staphylococcus aureus [1] = assay: Compound was evaluated for in vitro antibacterial activity against gram positive organism Staphylococcus aureus strain ATCC 33591; type: functional
Pseudomonas aeruginosa [2] = assay: Compound was evaluated for in vitro antibacterial activity against gram negative organism Pseudomonas aeruginosa strain DRCC 135; type: functional
Pseudomonas fluorescens [3] = assay: Compound was evaluated for in vitro antibacterial activity against gram negative organism Pseudomonas fluorescence strain DRCC 008; type: functional
Escherichia coli [4] = assay: Compound was evaluated for in vitro antibacterial activity against gram negative organism Escherichia coli strain DRCC 134; type: functional
Klebsiella pneumoniae [5] = assay: Compound was evaluated for in vitro antibacterial activity against gram negative organism Klebsiella pneumoniae strain DRCC 136; type: functional
Escherichia coli [6] = assay: Compound was evaluated for in vitro antibacterial activity against gram negative organism Escherichia coli strain DRCC 091; type: functional
Enterococcus faecalis [7] = assay: Compound was evaluated for in vitro antibacterial activity against gram positive organism Streptococcus faecalis strain ATCC 49384; type: functional
Staphylococcus aureus [8] = assay: Compound was evaluated for in vitro antibacterial activity against gram positive organism Staphylococcus aureus strain ATCC 33592; type: functional
Enterococcus faecalis [9] = assay: Compound was evaluated for in vitro antibacterial activity against gram positive organism Streptococcus faecalis strain ATCC 29212; type: functional
Salmonella typhimurium = assay: Compound was evaluated for in vitro antibacterial activity against gram negative organism Salmonella Typhimurium MTCC 98; type: functional, Salmonella enterica subsp. enterica serovar Typhimurium; conditions: Salmonella enterica
Klebsiella pneumoniae [10] = assay: Compound was evaluated for in vitro antibacterial activity against gram negative organism Klebsiella pneumoniae strain ATCC 10031; type: functional
Klebsiella pneumoniae [11] = assay: Compound was evaluated for in vitro antibacterial activity against gram negative organism Klebsiella pneumoniae strain DRCC 132; type: functional
Escherichia coli [12] = assay: Compound was evaluated for in vitro antibacterial activity against gram negative organism Escherichia coli strain DRCC 133; type: functional
[13] = tested on: Salmonella enterica subsp. enterica serovar Abony; assay: Compound was evaluated for in vitro antibacterial activity against gram negative organism Salmonella abony strain NCIM 2257; type: functional
Pseudomonas fluorescens [14] = assay: Compound was evaluated for in vitro antibacterial activity against gram negative organism Pseudomonas fluorescence strain NCIMB 10586; type: functional
Staphylococcus aureus [15] = assay: Compound was evaluated for in vitro antibacterial activity against gram positive organism Staphylococcus aureus strain ATCC 29213; type: functional
Pseudomonas aeruginosa [16] = assay: Compound was evaluated for in vitro antibacterial activity against gram negative organism Pseudomonas aeruginosa strain MTCC 1688; type: functional
Salmonella typhi = assay: Compound was evaluated for in vitro antibacterial activity against gram negative organism Salmonella typhi strain MTCC 531; type: functional, Salmonella enterica subsp. enterica serovar Typhi; conditions: Salmonella enterica
[17] = tested on: Staphylococcus epidermidis; assay: Compound was evaluated for in vitro antibacterial activity against gram positive organism Staphylococcus epidermidis strain ATCC 12228; type: functional
Staphylococcus aureus [18] = assay: Compound was evaluated for in vitro antibacterial activity against gram positive organism Staphylococcus aureus strain MTCC 737; type: functional
Staphylococcus aureus [19] = assay: Compound was evaluated for in vitro antibacterial activity against gram positive organism Staphylococcus aureus strain ATCC 6538P; type: functional
Pseudomonas aeruginosa [20] = assay: Compound was evaluated for in vitro antibacterial activity against gram negative organism Pseudomonas aeruginosa strain DRCC 131; type: functional
Pseudomonas aeruginosa [21] = assay: Compound was evaluated for in vitro antibacterial activity against gram negative organism Pseudomonas aeruginosa strain DRCC 137; type: functional
Pseudomonas aeruginosa [22] = assay: Compound was evaluated for in vitro antibacterial activity against gram negative organism Pseudomonas aeruginosa strains ATCC 27853; type: functional
Escherichia coli [23] = assay: Compound was evaluated for in vitro antibacterial activity against gram negative organism Escherichia coli strain ATCC 25922; type: functional
Streptococcus pyogenes = assay: Compound was evaluated for in vitro antibacterial activity against gram positive organism Streptococcus pyogenes strain DRCC 092; type: functional
Enterococcus faecalis [24] = assay: Compound was evaluated for in vitro antibacterial activity against gram positive organism Streptococcus faecalis strain ATCC 51299; type: functional
Escherichia coli [25] = assay: Compound was evaluated for in vitro antibacterial activity against gram negative organism Escherichia coli strain ATCC 35218; type: functional
Enterococcus faecalis [26] = assay: Compound was evaluated for in vitro antibacterial activity against gram positive organism Streptococcus faecalis strainATCC 49384; type: functional; conditions: ATCC 49384
Pseudomonas aeruginosa [27] = assay: Compound was evaluated for in vitro antibacterial activity against gram negative organism Pseudomonas aeruginosa strainsATCC 27853; type: functional; conditions: ATCC 27853
Staphylococcus aureus [28] = assay: Compound was evaluated for in vitro antibacterial activity against gram positive organism Staphylococcus aureus strainATCC 6538P; type: functional; conditions: ATCC 6538P

SMILES	MIC (Staphylococcus aureus [1]) [µg/mL]	MIC (Pseudomonas aeruginosa [2]) [µg/mL]	MIC (Pseudomonas fluorescens [3]) [µg/mL]	MIC (Escherichia coli [4]) [µg/mL]	MIC (Klebsiella pneumoniae [5]) [µg/mL]	MIC (Escherichia coli [6]) [µg/mL]	MIC (Enterococcus faecalis [7]) [µg/mL]	MIC (Staphylococcus aureus [8]) [µg/mL]	MIC (Enterococcus faecalis [9]) [µg/mL]	MIC (Salmonella typhimurium) [µg/mL]	MIC (Klebsiella pneumoniae [10]) [µg/mL]	MIC (Klebsiella pneumoniae [11]) [µg/mL]	MIC (Escherichia coli [12]) [µg/mL]	MIC [13] [µg/mL]	MIC (Staphylococcus aureus [15]) [µg/mL]	MIC (Pseudomonas aeruginosa [16]) [µg/mL]	MIC (Salmonella typhi) [µg/mL]	MIC [17] [µg/mL]	MIC (Staphylococcus aureus [18]) [µg/mL]	MIC (Pseudomonas aeruginosa [20]) [µg/mL]	also measured
O=C(O)c1cn(C2CC2)c2cc(N3CCNCC3)c(F)cc2c1=O [CIPROFLOXACIN]	0.25 (≈ 0.754 µM)	> 8	0.5 (≈ 1.51 µM)	> 8	1 (≈ 3.02 µM)	> 8	4 (≈ 12.1 µM)	4 (≈ 12.1 µM)	0.125 (≈ 0.377 µM)	0.25 (≈ 0.754 µM)	0.03 (≈ 0.0905 µM)	> 8	> 8	1 (≈ 3.02 µM)	2 (≈ 6.04 µM)	0.06 (≈ 0.181 µM)	0.25 (≈ 0.754 µM)	1 (≈ 3.02 µM)	0.25 (≈ 0.754 µM)	> 8	MIC (Pseudomonas fluorescens [14]): > 8 µg/mL; MIC (Staphylococcus aureus [19]): 0.5 µg/mL (≈ 1.51 µM)
CCn1cc(C(=O)O)c(=O)c2cc(F)c(N3CCNCC3)cc21 [NORFLOXACIN]	1 (≈ 3.13 µM)	> 8	0.25 (≈ 0.783 µM)	> 8	0.5 (≈ 1.57 µM)	> 8	4 (≈ 12.5 µM)	4 (≈ 12.5 µM)	1 (≈ 3.13 µM)	0.5 (≈ 1.57 µM)	0.03 (≈ 0.0939 µM)	> 8	> 8	0.5 (≈ 1.57 µM)	4 (≈ 12.5 µM)	0.125 (≈ 0.391 µM)	0.25 (≈ 0.783 µM)	1 (≈ 3.13 µM)	4 (≈ 12.5 µM)	> 8	MIC (Pseudomonas aeruginosa [21]): 2 µg/mL (≈ 6.26 µM); MIC (Pseudomonas aeruginosa [22]): 4 µg/mL (≈ 12.5 µM); MIC (Pseudomonas fluorescens [14]): > 8 µg/mL; MIC (Escherichia coli [23]): 0.03 µg/mL (≈ 0.0939 µM); MIC (Streptococcus pyogenes): 2 µg/mL (≈ 6.26 µM); MIC (Staphylococcus aureus [19]): 1 µg/mL (≈ 3.13 µM); MIC (Enterococcus faecalis [24]): 2 µg/mL (≈ 6.26 µM); MIC (Escherichia coli [25]): 0.125 µg/mL (≈ 0.391 µM)
N[C@@H]1CN(c2cc3c(cc2F)c(=O)c(C(=O)O)cn3C2CC2)C[C@H]1N.O=C(O)C(F)(F)F	2	> 8	1	> 8	4	> 8		8	2	> 8	0.125	> 8	> 8	2	2	0.5	1	2	2	> 8	MIC (Enterococcus faecalis [26]): 4 µg/mL; MIC (Pseudomonas aeruginosa [21]): > 8 µg/mL; MIC (Pseudomonas aeruginosa [27]): 4 µg/mL; MIC (Staphylococcus aureus [28]): 2 µg/mL; MIC (Escherichia coli [23]): 0.25 µg/mL; MIC (Streptococcus pyogenes): 1 µg/mL; MIC (Enterococcus faecalis [24]): 1 µg/mL; MIC (Escherichia coli [25]): 1 µg/mL
